Test results as given in patent publication US20130029928A1 (priority 2010, published 2013).
Where two headings read alike, the source gives them in different places.

Assay: Phase I study CXR1002-001: plasma pharmacokinetics (LC-MS/MS)
Format: in vivo, human
Conditions: human, plasma, oral; for concentration at 843 h / concentration at 844 h / concentration at 864 h / concentration at 2 h / concentration at 3 h / concentration at 4 h / concentration at 24 h / concentration at 168 h / concentration at 170 h / concentration at 171 h / concentration at 172 h / concentration at 192 h / concentration at 336 h / concentration at 338 h / concentration at 339 h / concentration at 340 h / concentration at 360 h / concentration at 506 h / concentration at 507 h / concentration at 508 h / concentration at 528 h / concentration at 672 h / concentration at 674 h / concentration at 675 h / concentration at 676 h / concentration at 696 h / concentration at 840 h / concentration at 842 h / concentration at 504 h: read-out: Concentration; for concentration at 864 h: 864 hr (Day 37); for concentration at 24 h: 24 hr (Day 2); for concentration at 168 h: 168 hr (Day 8); for concentration at 192 h: 192 hr (Day 9); for concentration at 336 h: 336 hr (Day 15); for concentration at 360 h: 360 hr (Day 16); for concentration at 528 h: 528 hr (Day 23); for concentration at 672 h: 672 hr (Day 29); for concentration at 696 h: 696 hr (Day 30); for concentration at 840 h: 840 hr (Day 36); for concentration at 504 h: 504 hr (Day 22)
Text: PK samples, PD (fasting) samples, blood glucose, and blood triglyceride samples, were taken over a 6-week period.
Dose limiting toxicity (DLT) will be based on the toxicity assessments over the first 3-week period of the repeat dosing schedule. PK samples (single blood sample) were taken on the following basis: • Every 6 weeks during the repeat dosing phase • If dosing is interrupted or stopped, samples will be taken at intervals according to patient convenience • PK sampling for safety evaluation may take place at any time, as clinically indicated
Plasma samples were collected after the single 50 mg dose at the following timepoints: Pre-dose, and then 0.25, 0.5, 0.75, 1, 1.5, 2, 3, 4, 6, 24, 48, and 72 hours after administration and then once weekly at weeks 2, 3, 4, 5, and 6 (days 8, 15, 22, 29, and 36). For patients treated with the weekly repeat dose, plasma samples were collected at the following timepoints: Pre-dose and then 2, 3, 4 and 24 hours after administration for a total of 6 weeks. Thereafter a single sample was collected every 6 weeks for monitoring of exposure during long term treatment. Plasma samples were processed at site and stored at −80° C. prior to batch shipment to the analytical laboratory.

[1] = 200 mg, Patient 009 Dose 200 mg
[2] = 200 mg, Patient 010 Dose 200 mg
[3] = 300 mg, Patient 011 Dose 300 mg
[4] = 300 mg, Patient 012 Dose 300 mg
[5] = 300 mg, Patient 013 Dose 300 mg
[6] = 300 mg, Patient 014 Dose 300 mg

Structure (SMILES): O=C(O)C(F)(F)C(F)(F)C(F)(F)C(F)(F)C(F)(F)C(F)(F)C(F)(F)F [CXR1002]
- concentration at 843 h [1]: 373 µM
- concentration at 844 h [1]: 329 µM
- concentration at 864 h [1]: 346 µM
- concentration at 92 day (200 mg, Patient 009 Dose 200 mg, Day 92): 456 µM
- concentration at 19 week (200 mg, Patient 009 Dose 200 mg, Week 19): 618 µM
- concentration at 25 week (200 mg, Patient 009 Dose 200 mg, Week 25): 501 µM
- concentration at 32 week (200 mg, Patient 009 Dose 200 mg, Week 32): 540 µM
- concentration at 0 h (200 mg, Patient 010 Dose 200 mg, 0 hr): 0 nM
- concentration at 2 h [2]: 21.1 µM
- concentration at 3 h [2]: 30.4 µM
- concentration at 4 h [2]: 33.6 µM
- concentration at 24 h [2]: 58.6 µM
- concentration at 168 h [2]: 51 µM
- concentration at 170 h [2]: 81.7 µM
- concentration at 171 h [2]: 81.4 µM
- concentration at 172 h [2]: 119 µM
- concentration at 192 h [2]: 101 µM
- concentration at 336 h [2]: 98.8 µM
- concentration at 338 h [2]: 118 µM
- concentration at 339 h [2]: 103 µM
- concentration at 340 h [2]: 66.7 µM
- concentration at 360 h [2]: 175 µM
- concentration at 506 h [2]: 207 µM
- concentration at 507 h [2]: 276 µM
- concentration at 508 h [2]: 187 µM
- concentration at 528 h [2]: 191 µM
- concentration at 672 h [2]: 192 µM
- concentration at 674 h [2]: 193 µM
- concentration at 675 h [2]: 237 µM
- concentration at 676 h [2]: 231 µM
- concentration at 696 h [2]: 256 µM
- concentration at 840 h [2]: 243 µM
- concentration at 842 h [2]: 188 µM
- concentration at 843 h [2]: 232 µM
- concentration at 844 h [2]: 223 µM
- concentration at 864 h [2]: 221 µM
- concentration at 2 h [3]: 101 µM
- concentration at 3 h [3]: 107 µM
- concentration at 4 h [3]: 112 µM
- concentration at 24 h [3]: 95.9 µM
- concentration at 168 h [3]: 57.9 µM
- concentration at 170 h [3]: 112 µM
- concentration at 171 h [3]: 122 µM
- concentration at 172 h [3]: 138 µM
- concentration at 192 h [3]: 178 µM
- concentration at 336 h [3]: 131 µM
- concentration at 338 h [3]: 160 µM
- concentration at 339 h [3]: 160 µM
- concentration at 340 h [3]: 147 µM
- concentration at 360 h [3]: 237 µM
- concentration at 504 h [3]: 145 µM
- concentration at 506 h [3]: 204 µM
- concentration at 507 h [3]: 288 µM
- concentration at 508 h [3]: 244 µM
- concentration at 672 h [3]: 255 µM
- concentration at 674 h [3]: 291 µM
- concentration at 675 h [3]: 304 µM
- concentration at 676 h [3]: 243 µM
- concentration at 696 h [3]: 326 µM
- concentration at 840 h [3]: 270 µM
- concentration at 842 h [3]: 384 µM
- concentration at 843 h [3]: 350 µM
- concentration at 844 h [3]: 282 µM
- concentration at 864 h [3]: 387 µM
- concentration at 12 week (300 mg, Patient 011 Dose 300 mg, Week 12): 574 µM
- concentration at 2 h [4]: 91.4 µM
- concentration at 3 h [4]: 93.5 µM
- concentration at 4 h [4]: 123 µM
- concentration at 24 h [4]: 74 µM
- concentration at 168 h [4]: 64.8 µM
- concentration at 171 h [4]: 148 µM
- concentration at 172 h [4]: 126 µM
- concentration at 192 h [4]: 152 µM
- concentration at 336 h [4]: 141 µM
- concentration at 339 h [4]: 196 µM
- concentration at 340 h [4]: 213 µM
- concentration at 360 h [4]: 218 µM
- concentration at 504 h [4]: 181 µM
- concentration at 506 h [4]: 278 µM
- concentration at 507 h [4]: 261 µM
- concentration at 508 h [4]: 221 µM
- concentration at 528 h [4]: 263 µM
- concentration at 672 h [4]: 303 µM
- concentration at 674 h [4]: 340 µM
- concentration at 675 h [4]: 373 µM
- concentration at 676 h [4]: 292 µM
- concentration at 696 h [4]: 334 µM
- concentration at 2 h [5]: 82.7 µM
- concentration at 3 h [5]: 76 µM
- concentration at 4 h [5]: 85.3 µM
- concentration at 24 h [5]: 79.6 µM
- concentration at 2 h [6]: 131 µM
- concentration at 3 h [6]: 121 µM
- concentration at 4 h [6]: 100 µM
- concentration at 24 h [6]: 102 µM
- concentration at 168 h [6]: 79.6 µM
- concentration at 170 h [6]: 154 µM
- concentration at 171 h [6]: 178 µM
- concentration at 172 h [6]: 180 µM
- concentration at 192 h [6]: 178 µM
- concentration at 336 h [6]: 173 µM
- concentration at 338 h [6]: 297 µM
- concentration at 339 h [6]: 270 µM
- concentration at 340 h [6]: 261 µM
- concentration at 504 h [6]: 288 µM
- concentration at 506 h [6]: 336 µM
- concentration at 507 h [6]: 374 µM
- concentration at 528 h [6]: 420 µM
- concentration at 672 h [6]: 355 µM
- concentration at 674 h [6]: 389 µM
- concentration at 675 h [6]: 400 µM
- concentration at 676 h [6]: 411 µM
- concentration at 696 h [6]: 478 µM
- concentration at 840 h [6]: 426 µM
- concentration at 842 h [6]: 506 µM
